# Measured values from ChEMBL document CHEMBL1135310, “Investigation of the PDZ domain ligand binding site using chemically modified peptides” (Bioorg Med Chem Lett, 2002).
# Numbered stars: 1 amine (or outer) side, 2 acyl side, 3 side chain; on linkers, the order of the positions; unused ones are H or OH. Square brackets hold non-standard residues; d marks the D form. Peptide text beside a SMILES is read from it. * marks the point of attachment. X2 = C[C@@H](O)[C@H](O)[C@H](N[*:1])C(=O)[*:2]; X1 = O=C([C@@H](N[*:1])[C@@H](O)CCO)[*:2]; NMeW = CN[C@@H](Cc1c[nH]c2ccccc12)C(=O)O; NMeI = CC[C@H](C)[C@H](NC)C(=O)O; NMeT = CN[C@H](C(=O)O)[C@@H](C)O; NMeQ = CN[C@@H](CCC(N)=O)C(=O)O; NMeV = CN[C@H](C(=O)O)C(C)C; Valol = CC(C)[C@@H](CO)N*
# Target: T1, Membrane-associated guanylate kinase, WW and PDZ domain-containing protein 3 (Homo sapiens, UniProt Q5TCQ9)
# T1 sequence (Q5TCQ9 whole entry): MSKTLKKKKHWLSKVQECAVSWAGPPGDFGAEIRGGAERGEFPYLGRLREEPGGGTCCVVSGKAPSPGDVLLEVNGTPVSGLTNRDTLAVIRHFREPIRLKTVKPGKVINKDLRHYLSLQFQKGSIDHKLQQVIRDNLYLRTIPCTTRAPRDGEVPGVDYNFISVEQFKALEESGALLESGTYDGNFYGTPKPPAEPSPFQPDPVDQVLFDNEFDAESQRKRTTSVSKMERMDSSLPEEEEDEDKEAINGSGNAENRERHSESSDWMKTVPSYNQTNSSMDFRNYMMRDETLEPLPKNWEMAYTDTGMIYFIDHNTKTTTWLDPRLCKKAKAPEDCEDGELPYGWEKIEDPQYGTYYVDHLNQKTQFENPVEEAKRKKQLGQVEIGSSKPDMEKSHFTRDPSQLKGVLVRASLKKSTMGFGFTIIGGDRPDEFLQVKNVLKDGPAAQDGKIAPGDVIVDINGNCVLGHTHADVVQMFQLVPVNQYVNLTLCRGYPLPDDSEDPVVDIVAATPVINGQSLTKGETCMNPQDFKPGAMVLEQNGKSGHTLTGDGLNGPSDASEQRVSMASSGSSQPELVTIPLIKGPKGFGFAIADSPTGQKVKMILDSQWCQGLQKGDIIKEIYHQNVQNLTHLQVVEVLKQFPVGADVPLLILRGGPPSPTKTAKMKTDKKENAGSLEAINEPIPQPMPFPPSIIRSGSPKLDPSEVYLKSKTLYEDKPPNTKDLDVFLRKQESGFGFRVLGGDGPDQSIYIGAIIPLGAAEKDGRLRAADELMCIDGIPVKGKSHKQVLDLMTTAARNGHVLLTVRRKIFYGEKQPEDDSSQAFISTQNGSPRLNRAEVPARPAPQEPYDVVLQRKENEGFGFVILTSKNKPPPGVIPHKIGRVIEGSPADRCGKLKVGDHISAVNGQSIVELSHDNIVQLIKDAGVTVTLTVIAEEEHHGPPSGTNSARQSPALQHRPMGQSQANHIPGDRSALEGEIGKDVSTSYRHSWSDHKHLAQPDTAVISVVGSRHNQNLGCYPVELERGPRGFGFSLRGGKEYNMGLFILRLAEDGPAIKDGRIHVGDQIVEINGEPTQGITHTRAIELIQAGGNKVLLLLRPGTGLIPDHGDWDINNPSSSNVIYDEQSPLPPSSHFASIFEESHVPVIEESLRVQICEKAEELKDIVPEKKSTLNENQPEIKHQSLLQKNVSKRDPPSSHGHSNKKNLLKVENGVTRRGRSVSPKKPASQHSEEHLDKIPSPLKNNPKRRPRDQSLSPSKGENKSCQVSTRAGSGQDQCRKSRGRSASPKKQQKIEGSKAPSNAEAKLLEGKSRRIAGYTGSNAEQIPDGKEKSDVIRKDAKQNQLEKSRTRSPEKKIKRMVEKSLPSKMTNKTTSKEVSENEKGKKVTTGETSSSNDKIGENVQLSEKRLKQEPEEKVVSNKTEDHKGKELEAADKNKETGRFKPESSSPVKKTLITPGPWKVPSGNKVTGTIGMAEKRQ
# Test: Inhibitory concentration for MAGI-3 PDZ2 domain
row,IC50 [µM],Molecule
1,29,CC[C@H](C)[C@H](NC(=O)[C@H](CCC(N)=O)NC(=O)[C@@H](NC(C)=O)[C@@H](C)O)C(=O)N(C)[C@H](C(=O)N[C@@H](Cc1c[nH]c2ccccc12)C(=O)N[C@H](C(=O)O)C(C)C)[C@@H](C)O (Ac-TQI[NMeT]WV-OH)
2,5.1,"CC[C@H](C)[C@H](NC(=O)[C@H](CCC(N)=O)NC(=O)[C@@H](NC(C)=O)[C@@H](C)O)C(=O)NC(C(=O)N[C@@H](Cc1c[nH]c2ccccc12)C(=O)N[C@H](C(=O)O)C(C)C)[C@@H](O)CO (single isomer, unassigned)"
3,10.6,CC[C@H](C)[C@H](NC(=O)[C@H](CCC(N)=O)NC(=O)[C@@H](NC(C)=O)[C@@H](C)O)C(=O)N[C@H](C(=O)N(C)[C@@H](Cc1c[nH]c2ccccc12)C(=O)N[C@H](C(=O)O)C(C)C)[C@@H](C)O (Ac-TQIT[NMeW]V-OH)
4,14.4,H-PFDEDQHTQIAKV-OH [PFDEDQHTQIAKV]
5,14.8,CC[C@H](C)[C@H](NC(C)=O)C(=O)N[C@H](C(=O)N[C@@H](Cc1c[nH]c2ccccc12)C(=O)N[C@H](C(=O)O)C(C)C)[C@@H](C)O (Ac-ITWV-OH)
6,4.5,Ac-QITWV-OH
7,5.2,Ac-TQITWV-OH

# Second part, the molecule before the results:
row,Molecule,IC50 [µM]
1,Ac-HTQITWV-OH,4.1
2,CC[C@H](C)[C@@H](C(=O)N[C@H](C(=O)N[C@@H](Cc1c[nH]c2ccccc12)C(=O)N[C@H](C(=O)O)C(C)C)[C@@H](C)O)N(C)C(=O)[C@H](CCC(N)=O)NC(=O)[C@@H](NC(C)=O)[C@@H](C)O (Ac-TQ[NMeI]TWV-OH),20.4
3,CC[C@H](C)[C@H](NC(=O)[C@H](CCC(N)=O)N(C)C(=O)[C@@H](NC(C)=O)[C@@H](C)O)C(=O)N[C@H](C(=O)N[C@@H](Cc1c[nH]c2ccccc12)C(=O)N[C@H](C(=O)O)C(C)C)[C@@H](C)O (Ac-T[NMeQ]ITWV-OH),9.8
4,H-PFDEDQHTQITWV-OH,0.74
5,CC[C@H](C)[C@H](NC(=O)[C@H](CCC(N)=O)NC(=O)[C@@H](NC(C)=O)[C@H](C)O)C(=O)N[C@@H](C(=O)N[C@@H](Cc1c[nH]c2ccccc12)C(=O)N[C@H](C(=O)NO)C(C)C)[C@H](C)O,42.1
6,"CC[C@H](C)[C@H](NC(=O)[C@H](CCC(N)=O)NC(=O)[C@@H](NC(C)=O)[C@H](C)O)C(=O)NC(C(=O)N[C@@H](Cc1cn(C)c2ccccc12)C(=O)N[C@H](C(=O)O)C(C)C)[C@H](C)O (single isomer, unassigned)",34

# Target: T1, Membrane-associated guanylate kinase, WW and PDZ domain-containing protein 3
# Test: Inhibitory concentration for MAGI-3 PDZ2 domain; ND denotes not detected
row,IC50,Molecule
1,Not detected,"CCC(O)[C@H](O)C(NC(=O)[C@@H](NC(=O)[C@H](CCC(N)=O)NC(=O)[C@@H](NC(C)=O)[C@@H](C)O)[C@@H](C)CC)C(=O)N[C@@H](Cc1c[nH]c2ccccc12)C(=O)N[C@H](C(=O)O)C(C)C (single isomer, unassigned)"
2,Not detected,CC[C@H](C)[C@H](NC(=O)[C@H](CCC(N)=O)NC(=O)[C@@H](NC(C)=O)[C@@H](C)O)C(=O)N[C@H](C(=O)N[C@@H](Cc1c[nH]c2ccccc12)C(=O)N[C@H](C(=O)O)C(C)C)[C@@H](O)CCO (Ac-TQI[X1]WV-OH)

# Further lines, the molecule ahead of its results:
row,Molecule,IC50
1,"CC[C@H](C)[C@H](NC(=O)[C@H](CCC(N)=O)NC(=O)[C@@H](NC(C)=O)[C@H](C)O)C(=O)NC(C(=O)N[C@@H](Cc1c[nH]c2ccccc12)C(=O)N[C@H](C(=O)O)C(C)C)[C@@H](O)C(C)(C)O (single isomer, unassigned)",Not detected
2,CC[C@H](C)[C@H](NC(=O)[C@H](CCC(N)=O)NC(=O)[C@@H](NC(C)=O)[C@@H](C)O)C(=O)N[C@H](C(=O)N[C@@H](Cc1c[nH]c2ccccc12)C(=O)N(C)[C@H](C(=O)O)C(C)C)[C@@H](C)O (Ac-TQITW[NMeV]-OH),Not detected
3,CC[C@H](C)[C@H](NC(=O)[C@H](CCC(N)=O)NC(=O)[C@@H](NC(C)=O)[C@@H](C)O)C(=O)N[C@H](C(=O)N[C@@H](Cc1c[nH]c2ccccc12)C(=O)N[C@H](C(=O)O)C(C)C)[C@@H](O)[C@@H](C)O (Ac-TQI[X2]WV-OH),Not detected
4,CC[C@H](C)[C@H](NC(=O)[C@H](CCC(N)=O)NC(=O)[C@@H](NC(C)=O)[C@@H](C)O)C(=O)N[C@H](C(=O)N[C@@H](Cc1c[nH]c2ccccc12)C(=O)N[C@H](CO)C(C)C)[C@@H](C)O (Ac-TQITW-Valol),Not detected

# Target: T1, Membrane-associated guanylate kinase, WW and PDZ domain-containing protein 3
# Test: Dissociation constant for binding to MAGI-3 PDZ2 domain
row,Kd [µM],Molecule
1,0.02,H-PFDEDQHTQITWV-OH
2,1,H-PFDEDQHTQITKV-OH
